Test system: modified biphenyl dioxygenase (modified bphA1::bphA2A3A4) expressed in E. coli (pKF2072)
Assay: not given
Assay type: cell-based, Pseudomonas pseudoalcaligenes KF707
Settings: 5 mg substrate in 70 ml M9 medium, 28° C., 2 to 3 days, ratio of HPLC peak areas (max plot 230 to 350 nm)
Method: (§1) To start the conversion reaction, first, the necessary E. coli transformant cells were removed from the abovementioned glycerol stock culture with a platinum loop, suspended in 4 ml of LB medium containing 150 μg/ml ampicillin (Ap) and cultured at 28° C. for 7 to 8 hours at 175 rpm (pre-culture). […] The cells were recovered by centrifugation at 8,000 rpm for 5 minutes and suspended in 70 ml of M9 medium (supplemented with 150 μg/ml Ap, 0.4% (w/v) glucose, and 10 μg/ml thiamine) containing isopropyl-1-thio-β-D-galactopyranoside (IPTG) at a final concentration of 1 mM and 5 mg of a substrate, and the cultivation was further carried out at 28° C. for 2 to 3 days at 175 rpm. The substrate used was prepared by dissolving it in a solvent, such as ethanol, generally at a concentration of 10 mg/ml and added in an amount of 0.5 ml. On day 2 or 3 of the cultivation, the lipid was extracted by adding 70 ml of methanol and stirring for 30 minutes, and the supernatant was collected by centrifugation at 8,000 rpm for 5 minutes to obtain a crude lipid extract.
(§2) The HPLC analysis was carried out using a Puresil C18 column (4.6 mm×250 mm, Waters) at a rate of 1 ml/min. […] Conditions for development with solvents were as follows:
(§3) Solution A: water/methanol (50/50)
(§4) Solution B: methanol/2-propanol (60/40)
(§5) 0 to 5 min (solution A), 5 to 20 min (solution A)→(solution B) convex gradient (No. 3, Waters), 20 min−(solution B)
(§6) The conversion rate was expressed by a ratio of peak areas monitored at the wave length where the maximum absorbance was observed within the range from 230 to 350 nm (max plot).

SMILES	conversion rate [%]
c1ccc(-c2nc3ccccc3o2)cc1 [2-phenylbenzoxazole]	100
Cc1cccnc1-c1ccccc1 [3-methyl-2-phenylpyridine]	16
CCCCc1cc2ccccc2o1 [2-n-butylbenzofuran]	100
Cc1ccc(-c2ccccn2)cc1 [2-(p-tolyl)pyridine]	96
c1ccc(Cc2cnsc2)cc1 [4-benzylisothiazole]	65
c1ccc(-c2ccncn2)cc1 [4-phenylpyrimidine]	100
c1ccc(Cc2ccccn2)cc1 [2-benzylpyridine]	57
O=C1CC(c2ccccc2)c2ccccc21 (centres unmarked) [3-phenyl-1-indanone]	97
Oc1ccccc1-c1nc2ccccc2o1 [2-(2-hydroxyphenyl)-benzoxazole]	39
c1ccc(-n2cccn2)cc1 [1-phenylpyrazole]	47
c1ccc(-c2ccc3ccccc3n2)cc1 [2-phenylquinoline]	89
c1ccc(-c2nc3ccccc3s2)cc1 [2-phenylbenzothiazole]	81
Cc1ccn(-c2ccccc2)n1 [3-methyl-1-phenylpyrazole]	100
CCCCCCc1ccsc1 [3-n-hexylthiophene]	100
c1ccc(-n2cccc2)cc1 [1-phenylpyrrole]	100
c1ccc(-c2cc3ccccc3[nH]2)cc1 [2-phenylindole]	71
c1ccc(Cn2ccnc2)cc1 [1-benzylimidazole]	97

Test system: biphenyl dioxygenase derived from the strain Pseudomonas pseudoalcaligenes KF707 (bphA1A2A3A4) expressed in E. coli (pKF6622)
Assay: not given
Assay type: cell-based
Settings: 5 mg substrate in 70 ml M9 medium, 28° C., 2 to 3 days, ratio of HPLC peak areas (max plot 230 to 350 nm)
Method: as §1, §2, §3, §4, §5, §6

SMILES	conversion rate [%]
c1ccc(-c2nc3ccccc3o2)cc1 [2-phenylbenzoxazole]	45
CCCCc1cc2ccccc2o1 [2-n-butylbenzofuran]	90
Cc1ccc(-c2ccccn2)cc1 [2-(p-tolyl)pyridine]	61
c1ccc(Cc2cnsc2)cc1 [4-benzylisothiazole]	27
c1ccc(Cc2ccccn2)cc1 [2-benzylpyridine]	11
O=C1CC(c2ccccc2)c2ccccc21 (centres unmarked) [3-phenyl-1-indanone]	93
Oc1ccccc1-c1nc2ccccc2o1 [2-(2-hydroxyphenyl)-benzoxazole]	25
c1ccc(-c2ccc3ccccc3n2)cc1 [2-phenylquinoline]	53
c1ccc(-c2nc3ccccc3s2)cc1 [2-phenylbenzothiazole]	36
Cc1ccn(-c2ccccc2)n1 [3-methyl-1-phenylpyrazole]	63
CCCCCCc1ccsc1 [3-n-hexylthiophene]	99
c1ccc(-n2cccc2)cc1 [1-phenylpyrrole]	100
c1ccc(-c2cc3ccccc3[nH]2)cc1 [2-phenylindole]	23
c1ccc(Cn2ccnc2)cc1 [1-benzylimidazole]	43

Same assay, conditions: 5 mg substrate in 70 ml M9 medium, HPLC analysis

SMILES	conversion products observed
Cc1cccnc1-c1ccccc1 [3-methyl-2-phenylpyridine]	hardly observed
c1ccc(-c2ccncn2)cc1 [4-phenylpyrimidine]	hardly observed
c1ccc(-n2cccn2)cc1 [1-phenylpyrazole]	hardly observed

Test system: modified bphA1::bphA2A3A4 expressed in Streptomyces lividans TK21 (pIJ-2072)
Assay: Conversion experiment using recombinant actinomycetes (pIJ-2072), HPLC analysis
Assay type: cell-based, Pseudomonas pseudoalcaligenes KF707
Settings: substrate 0.1 mg/ml, cells 10 mg/ml, 30° C., 2 days
Method: Plasmid pKF2072 was double-digested with SacI/SmaI, after which a 4.06 kb fragment containing the modified bphA1::bphA2A3A4 was excised. Then, vector pIJ6021 for actinomycetes (see E. Takano, J. White, C. J. Thompson, M. J. Bibb, Gene, 166, 133-137, 1995) was double-digested with NdeI-HindIII, and then the abovementioned 4.06 kb SacI-HindIII fragment and a synthesized DNA 5′-[…]-3′ were added. After annealing, treatment with a Klenow fragment enzyme was followed by a ligation reaction. E. coli JM109 strain was transformed, after which the objective plasmid pIJ-2072 was obtained. The pIJ-2072 was designed so that the modified bphA1 gene is located immediately downstream of a powerful actinomycetes promoter PtipA and its ribosome binding site, being followed by the bphA2A3A4 gene. Namely, the 5′ binding site is […]. The underlined segment is the ribosome binding site, and the modified bphA1 gene starts at ATG from nucleotide 18 to nucleotide 20. This plasmid pIJ-2072 was used to transform actinomycetes Streptomyces lividans TK21 (see D. A. Hopwood, M. J. Bibb, K. F. Chater et al., Genetic Manipulation of Streptomyces: A laboratory Manual, The John Innes Institute, Norwich, 1985). […]

SMILES	converted into its diol derivative, yield [%]
c1ccc(-c2ccc3ccccc3n2)cc1 [2-phenylquinoline]	~100
